Experimental data taken from publication PMC10778758, “Dithioethanol (DTE)-Conjugated Deoxyribose Cyclic Dinucleotide Prodrugs (DTE-dCDNs) as STING Agonist” (International Journal of Molecular Sciences, 2023).

Legend:
THP-1 cells = conditions: human, 10 μM
Experimental: Uptake of DTE-dCDN Prodrug. THP-1 cells were seeded at a concentration of 5 × 10^6 cells/mL into a 12-well plate. After 16 h of incubation at 37 °C in a 5% CO2 atmosphere, the compounds were added to cell cultures and the cells were collected at time points of 1 h, 2 h, 4 h, 6 h, 8 h, 12 h, and 24 h by centrifugation for 1 min at 1000× g. The media was removed completely, and the cells were washed twice with 800 μL of ice-cold PBS before being lysed with 400 μL ice-cold 70% methanol. Lysates were incubated overnight at −20 °C and then centrifuged for 20 min at 13,000× g to remove cellular debris. The supernatant was analyzed via LC/MS/MS (Agilent 1290 Infinity II/6470A)
(a) The intracellular concentration of the prodrug 9 in THP-1 cells. (b) The intracellular concentration of the parent dCDN (3′,3′-c-di-dAMP) in THP-1 cells. THP-1 cells were treated with 10 μM prodrug 9 or 100 μM parent dCDN (3′,3′-c-di-dAMP) for the indicated period of time (1, 2, 4, 6, 8, 12, 24 h), and the intracellular concentration of the metabolites in cellular extracts was determined with liquid chromatograph MS/MS analysis.

[1] = In vitro serum stability assay in 20% fetal bovine serum; type: in vitro ADME; conditions: bovine, 20% fetal bovine serum, pH 7.4, 20% FBS, 37 °C, read-out: T1/2 (half-life period) (converted)
Experimental: In vitro serum stability assay. Each compound (100 μM) was incubated at 37 °C in the reaction buffer including 20% fetal bovine serum (FBS, GIBCO, Thermo Fisher Scientific, Waltham, MA, USA), 10 mM PBS (pH 7.4), and 1 mM MgCl2. At various times, aliquots of the reaction mixture were collected and stopped by adding 50 μL MeCN and diluted with 50 μL water. The reaction mixture was then centrifuged at 10,000 rpm for 5 min, leaving 100 μL supernatant for the HPLC assay. An amount of 10 μL of each aliquot was injected directly into HPLC (Agilent 1260 Infinity HPLC equipped with a UV detector; column Agilent ZORABX SB-C18 5 μm [4.6 × 150 mm; detection at 254 nm; column temperature 25 °C] for analysis. Amounts of 10 mM TEAA buffer (solvent A) and MeCN (solvent B) were used as the mobile phase with a flow rate of 1 mL/min. The gradient was set as the following: 0–2 min: 98% A/2% B; 2–6 min: 98% A/2% B to 100% B; 6–10 min: 100% B; 10–13 min: 100% B to 98% A/2% B; 13–15 min: 98% A/2% B. The % remaining of the test compounds after incubation in the serum was then calculated.
Figure 4 Parent dCDN of DTE-dCDN prodrug 9 retained a high serum stability. The serum stability analysis of (a) prodrug 9, (b) 3′,3′-c-di-dAMP, (c) 2′,3′-cGAMP and (d) ADU-S100 were determined in 20% FBS. Each compound (100 μM) was incubated in 20% FBS at 37 °C. At various times (0, 2, 4, 8, 12, 24, 48, 72 h), aliquots of the reaction mixture were analyzed with HPLC at 254 nm. The % remaining of test compounds after incubation in serum was calculated.

CT-26 cells = assay: RT-qPCR of IFN-β mRNA in CT-26 cells; type: cell-based; conditions: CT-26, prodrug 9 and ADU-S100 10 μM, CDNs 100 μM, 4 h
Experimental: Real-time quantitative PCR (RT-qPCR). The mRNA expression levels of diverse cytokines were measured using quantitative RT-PCR (RT-qPCR) assays. THP-1 cells or CT26 cells were incubated with the compounds for 4 h, subsequently harvested for RNA isolation according to the manufacturer’s instructions of RNApure Tissue&Cell Kit (DNase I) (CWBIO, Cambridge, MA, USA catalogue no. CW0560S). Next, 1 μg RNA was reversely transcribed to cDNA by TransScript All-in-One First-Strand cDNA Synthesis SuperMix for qPCR (One-Step gDNA Removal) (TransGen, Beijing, China). To examine the mRNA levels, real-time PCR was performed in a CFX96 Real-Time PCR system (Bio-RAD, Hercules, CA, USA) using PerfectStart Green qPCR Super Mix (TransGen) and primers (Sangon Biotech, Shanghai, China). The expression level was calculated according to the formula (2^−∆∆Ct) using the GAPDH or β-actin as the internal reference gene and the relative gene expression fold was normalized to the DMSO-treated cells. The THP-1 and CT26 cell lines were obtained from American Type Culture Collection (ATCC, Manassas, VA, USA). […]
expression levels of IFN-β were assessed by real-time quantitative PCR (qPCR) under the treatment of prodrug 9 (10 μM), 3′,3′-c-di-dAMP (100 μM), 2′,3′-cGAMP (100 μM) and ADU-S100 (10 μM) for 4 h.
Figure S3. […]
levels of IFN-β were assessed by an enzyme-linked immunosorbent assay (ELISA). […]

## Nc1ncnc2c1ncn2C1CC2OP(=O)(OCCSSc3ccccn3)OCC3OC(n4cnc5c(N)ncnc54)CC3OP(=O)(OCCSSc3ccccn3)OCC2O1 (stereo not drawn) [prodrug 9]
THP-1 cells
  time at which intracellular levels of prodrug 9 peaked: 2 h
[1]
  half-life at 100 μM: 28 h
CT-26 cells
  induction of IFN-β transcription in CT-26 cells: did not
